The source of these data is patent US20170334927A1 (Shanghai Sun-sail Pharmaceutical Science & Technology Co., …, priority 2014, published 2017).

≈ marks a conversion by molar mass, not a printed value. Structures can show the parent of a compound that is named as a salt.

Series [1] can be described thus: physchem. The series is classed as physicochemical. To be noted: for Solubility: 3 days, pH 1.2; for solubility at 3 days: pH 1.2, simulated gastric fluid, thermodynamic from solid. On the procedure: 3-5 mg of compound to be tested was added to 0.5 mL of aqueous HCl solution (pH=1.2) and the mixture was shaken for three days on a shaker; the sample was centrifuged for 5 min at 10,000 rpm in a centrifuge; a volumetric flask (50 mL) was loaded with 2 mL of supernatant and water was added to a volume at the graduation mark to prepare a sample solution; and 2.6 mg of sample was precisely weighed into a volumetric flask (50 mL), an appropriate amount of methanol was added to dissolve the sample, and water was added to a volume at the graduation mark and shaken well to give a control sample solution. 20 μL of sample solution and control sample solution were each injected, and tested by liquid chromatography. The solubility was calculated as follows:
Solubility (mg/mL)=C (control)*25*A (sample)/A (control)
C (control): concentration of the control sample
A (sample): peak area of the liquid chromatogram of the sample solution
A (control): peak area of the liquid chromatogram of the control sample solution

Series [2] addresses T1, hERG potassium channel (Homo sapiens, UniProt Q12809).
T1 construct: host or cells: HEK-293
Description: Inhibitory effect on hERG potassium ion channel (whole cell patch clamp, HEK-293 cells). In kind it is cell-based. To be noted: hERG potassium current, room temperature, read-out: IC50 (inhibition on hERG). On the procedure:
hERG potassium channel currents were recorded with the whole cell patch clamp technique at room temperature in HEK-293 cells (Creacell™, France) expressing hERG stably. A glass microelectrode with a tip resistance of about 1-4 MΩ was connected to the Axon 200A patch clamp amplifier. Clamp voltage and data record were controlled by a computer via the Axon DigiData 1322A A/D converter with the clampex 9.2 software; the cells were clamped at −80 mV; and the step voltage for inducing the hERG potassium current (IhERG) was changed from −80 mV to +20 mV by providing a 2 s depolarization voltage, repolarized to −40 mV and returned to −80 mV after 4 s. This voltage step was given respectively before and after administration to induce the hERG potassium current.
Data analysis and processing were performed with the PatchMaster, GraphPad Prism 5 and Excel softwares. The degree of inhibition of different compound concentrations on the hERG potassium current (hERG tail current peak induced at −50 mV) was calculated using the following formula:
Fractional block %=[1−(I/Io)]×100%
in the formula, Fractional block represents the percent inhibition of a compound on the hERG potassium current, and I and Io represent the magnitudes of the hERG potassium current […], respectively.
The IC50 of a compound was calculated using the following equation by fitting: […]
in the equation, I and Io represent the magnitudes of the hERG potassium current […], respectively; [C] is the compound concentration, and n is the Hill coefficient.

The nature of series [3]: Drug metabolism test (pharmacokinetics, oral, mice). In kind it is in vivo, ICR mice. To be noted: 10 mg/kg; for AUC(0-inf) / AUC(0-t) / Cmax / MRT / Tmax / half-life: male, ICR, mouse, po, orally (intragastric), plasma. On the procedure:
18 healthy male ICR mice with a body weight of 18-22 g were administered drugs by intragastric administration, with an administration dose of 10 mg/kg and an administration volume of 10 mL/kg, respectively. These mice were fasted for 12 h before the test and had free access to drinking water. These mice were fed 2 h after administration uniformly. 0.3 mL of blood was taken from the postocular venous plexus of a mouse at the set time points, placed in a heparinized test tube and centrifuged for 10 min at 3000 rpm; and plasma was separated and frozen in a refrigerator at −20° C. When measured, the sample was treated through the method for treating the plasma sample, and the drug concentration in plasma was determined by LC-MS/MS and the pharmacokinetic parameters of the drug were calculated.

For series [4], the system named is Mycobacterium tuberculosis H37Rv. Description: Activity test for Mycobacterium tuberculosis (MIC, H37Rv). In kind it is cell-based. To be noted: for anti Mycobacterium tuberculosis activity (MIC against H37Rv), times of that of PA-824: relative to PA-824; for anti Mycobacterium tuberculosis activity (MIC against H37Rv), times of that of ethambutol: relative to ethambutol; for MIC: Mycobacterium tuberculosis H37Rv, liquid medium, 37° C., read-out: Minimum inhibitory concentration against H37Rv. On the procedure:
The tested strain H37Rv was transferred to liquid medium and cultured for 2 weeks at 37° C.; a small amount of the cultured bacterial solution was pipetted and placed in 4 mL of liquid medium; 10-20 sterile glass beads with a diameter of 2-3 mm were added; the mixture was shaken for 20-30 s and left to sediment for 10-20 min; the supernatant of the bacterial suspension was pipetted and adjusted to a turbidity of 1 MCF (equivalent to 1×10^7 CFU/mL) with the liquid medium for use. Each drug was dissolved to 1 mg/mL with an appropriate amount of DMSO and filtered with a 0.22 μm filter. Then, the solution was diluted to a desired experimental concentration with the liquid medium. The final concentrations of the tested drugs were set as follows: 0.001 μg/mL, 0.002 μg/mL, 0.0039 μg/mL, 0.0078 μg/mL, […], 0.03125 μg/mL, 0.0625 μg/mL, 0.125 μg/mL, 0.25 μg/mL, 0.5 μg/mL and 1 μg/mL, a total of 11 concentration gradients. 100 μL of each of the above-mentioned drug solutions was added to a 96-well microwell plate, then 100 μL bacterial solution with a concentration of 1 mg/mL was added to allow the drug concentration to reach the final set concentration, and cultured at 37° C. Three groups in parallel were set for each drug dilution with inoculation amounts of 100%, 10% and 1%, respectively, while no drug was added to the control group.

For series [5] the following is noted: in vivo; cited from earlier work.

T1 sequence (Q12809 whole entry): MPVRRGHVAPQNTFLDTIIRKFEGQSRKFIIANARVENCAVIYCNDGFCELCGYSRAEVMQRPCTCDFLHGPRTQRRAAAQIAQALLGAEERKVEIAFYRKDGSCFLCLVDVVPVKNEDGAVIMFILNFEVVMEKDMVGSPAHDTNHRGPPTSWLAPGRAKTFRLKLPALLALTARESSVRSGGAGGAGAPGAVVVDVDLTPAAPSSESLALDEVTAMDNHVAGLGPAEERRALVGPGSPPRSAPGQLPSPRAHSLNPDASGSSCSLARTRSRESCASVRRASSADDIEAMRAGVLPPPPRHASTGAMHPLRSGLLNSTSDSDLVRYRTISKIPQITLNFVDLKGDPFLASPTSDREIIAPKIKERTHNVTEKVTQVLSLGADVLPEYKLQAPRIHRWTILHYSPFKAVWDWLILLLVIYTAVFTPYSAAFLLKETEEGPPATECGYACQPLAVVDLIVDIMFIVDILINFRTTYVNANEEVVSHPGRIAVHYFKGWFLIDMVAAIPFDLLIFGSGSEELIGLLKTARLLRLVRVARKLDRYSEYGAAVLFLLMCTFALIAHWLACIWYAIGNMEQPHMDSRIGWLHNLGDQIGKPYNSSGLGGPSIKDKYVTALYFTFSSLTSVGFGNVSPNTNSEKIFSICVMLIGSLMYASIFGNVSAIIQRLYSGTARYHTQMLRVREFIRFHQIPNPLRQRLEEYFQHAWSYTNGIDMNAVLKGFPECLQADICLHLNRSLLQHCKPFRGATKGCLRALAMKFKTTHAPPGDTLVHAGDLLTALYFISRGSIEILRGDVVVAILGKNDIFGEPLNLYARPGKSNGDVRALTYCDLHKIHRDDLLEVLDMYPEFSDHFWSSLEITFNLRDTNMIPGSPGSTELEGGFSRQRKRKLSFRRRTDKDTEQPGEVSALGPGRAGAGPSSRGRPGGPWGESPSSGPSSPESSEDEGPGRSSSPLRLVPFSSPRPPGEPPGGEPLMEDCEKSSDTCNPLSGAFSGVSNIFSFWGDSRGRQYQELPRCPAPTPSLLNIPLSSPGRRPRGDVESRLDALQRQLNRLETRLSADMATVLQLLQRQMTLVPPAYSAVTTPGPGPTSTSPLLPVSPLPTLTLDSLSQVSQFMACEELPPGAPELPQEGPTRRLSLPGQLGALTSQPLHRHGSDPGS

By melting point is commonly meant the temperature, or range, at which the solid turns liquid. `CN(Cc1cnc(N2CCN(c3ccc(OC(F)(F)F)cc3)CC2)nc1)[C@@H]1COc2nc([N+](=O)[O-])cn2C1.O=C(O)/C=C/C(=O)O` gave a melting point of 143 to 145 °C.

With `Cc1nc(N2CCN(c3ccc(OC(F)(F)F)cc3)CC2)ncc1CN[C@@H]1COc2nc([N+](=O)[O-])cn2C1` (as salt: methanesulfonate) [Compound 49, (S)-N-((4-methyl-2-(4-(4-(trifluoromethoxy)phenyl)piperazin-1-yl)pyrimidin-5-yl)methyl)-2-nitro-6,7-dihydro-5H-imidazo[2,1-b][1,3]oxazin-6-amine methanesulfonate], the melting point lay in the range of 175 to 177 °C.

As usually defined, the Solubility is the dissolved amount per volume that the medium holds. A high value points to much dissolved substance. By solubility is commonly meant the dissolved amount per volume that the medium holds. A low value points to little dissolved substance. As a reminder, the IC50 is the point on the concentration scale where inhibition reaches its midpoint. In general, AUC(0-inf) refers to the area under the concentration-time curve extrapolated to infinity. A high value points to high exposure. What is called AUC(0-t) is the area under the concentration-time curve up to a stated or last time point. A higher AUC(0-t) goes with high exposure. A word on the Cmax: it is the peak of the concentration-time curve. By MRT is commonly meant the average time that molecules of a dose stay in the body. In general, Tmax refers to the time from dosing to the highest level. One may read the half-life as how long it takes for the measured level to halve. Higher therefore signals slow decline. For `O=[N+]([O-])c1cn2c(n1)OC[C@@H](NCc1cnc(N3CCN(c4ccc(OC(F)(F)F)cc4)CC3)nc1)C2` [Compound 18], in series [1], the Solubility was 1532.1 µg/mL (≈ 2940 µM) and the solubility at 3 days was > 1000 µg/mL. In series [2], the half-maximal inhibitory concentration (IC50) came to 41.1 µM. In series [3], this compound returned an area under the curve AUC(0-inf) of 16700 ng·h/mL, an area under the curve AUC(0-t) of 16000 ng·h/mL, a Cmax of 1470 ng/mL and an MRT of 7.11 h. Moreover, in series [3], the time to peak (Tmax) was 2 h and the half-life is 5.29 h. In series [4], the “anti Mycobacterium tuberculosis activity (MIC against H37Rv), times of that of PA-824” value came out at 8 times; the “anti Mycobacterium tuberculosis activity (MIC against H37Rv), times of that of ethambutol” value came to 64 times; the MIC came to 7.8 ng/mL (≈ 0.015 µM).

`CC1CN(c2ncc(CN[C@@H]3COc4nc([N+](=O)[O-])cn4C3)cn2)CCN1c1ccc(OC(F)(F)F)cc1` (stereo partly shown) [Compound 19]: in series [1], the Solubility was 1321.8 µg/mL (≈ 2470 µM) and the solubility at 3 days was > 1000 µg/mL. Further, in series [2], the IC50 amounted to 38.3 µM. Also, in series [3], the AUC(0-inf) turned out to be 16800 ng·h/mL, the area under the curve AUC(0-t) amounted to 16300 ng·h/mL, the peak level (Cmax) was 1780 ng/mL and the MRT turned out to be 5.02 h. In series [3], the time of peak concentration (Tmax) stood at 1.98 h and the half-life is 3.17 h. Besides, in series [4], the “anti Mycobacterium tuberculosis activity (MIC against H37Rv), times of that of PA-824” value is listed as 8 times; the “anti Mycobacterium tuberculosis activity (MIC against H37Rv), times of that of ethambutol” value is reported as 64 times; the MIC came out at 7.8 ng/mL (≈ 0.0146 µM).

Turning to `O=[N+]([O-])c1cn2c(n1)OC[C@@H](NCc1cnc(N3CCN(c4ccc(C(F)(F)F)cc4)CC3)nc1)C2` [Compound 31, (S)-2-nitro-N-((2-(4-(4-(trifluoromethyl)phenyl)piperazin-1-yl)pyrimidin-5-yl)methyl)-6,7-dihydro-5H-imidazo[2,1-b][1,3]oxazin-6-amine], in series [1], the Solubility was 1354.8 µg/mL (≈ 2690 µM) and the solubility at 3 days is > 1000 µg/mL. In series [2], the IC50 turned out to be 39.5 µM. Besides, in series [3], the AUC(0-inf) came to 22500 ng·h/mL, the area under the curve AUC(0-t) worked out at 22400 ng·h/mL, the Cmax was 2140 ng/mL and the mean residence time (MRT) worked out at 4.18 h. Moreover, in series [3], the time of peak concentration (Tmax) was 1.97 h and the half-life was 3.05 h. For the same compound, in series [3] (orally, judgement on Table 6), the “pharmacokinetic properties (in words)” value is recorded as “excellent”. Besides, in series [4], the “anti Mycobacterium tuberculosis activity (MIC against H37Rv), times of that of PA-824” value is listed as 8 times; the “anti Mycobacterium tuberculosis activity (MIC against H37Rv), times of that of ethambutol” value was found to be 64 times; the MIC amounted to 7.8 ng/mL (≈ 0.0155 µM).

Regarding `C[C@]1(COc2ccc(N3CCC(Oc4ccc(OC(F)(F)F)cc4)CC3)cc2)Cn2cc([N+](=O)[O-])nc2O1` [OPC-67683], in series [5], the “oral bioavailability (in words, background)” value is recorded as “very low”.

The compound `O=[N+]([O-])c1cn2c(n1)OC[C@@H](OCc1ccc(OC(F)(F)F)cc1)C2` [PA-824, reference compound] showed a solubility at 3 days in series [1] of 17 µg/mL (≈ 47.3 µM). For the same compound, the “oral bioavailability (in words, background)” value in series [5] was “low”. In series [4], the MIC was found to be 62.5 ng/mL (≈ 0.174 µM).
